The values below come from patent US11548899B2, “Fused 1,4-oxazepines and related analogs as BET bromodomain inhibitors” (THE REGENTS OF THE UNIVERSITY OF MICHIGAN, priority 2016, dated 2023).

Each structure is given as a SMILES string. Values joined by “and” are separate entries in the source; they are usually repeats but may differ in a detail not shown here. Identical values can stand only once.

The target in one test is T1, recombinant BRD4 BD1 (Homo sapiens, UniProt O60885).
T1 construct: recombinant BRD4 BD1 and BRD4 BD2 proteins
In words: Competitive fluorescence-polarization (FP) binding assay, BRD4 BD1. The settings on record: FP competitive binding; protein 10 nM, probe 1.5 nM; read-out: IC50 (nM) BRD4 BD1.

The target in the next test is T2, recombinant BRD4 BD2 (Homo sapiens, UniProt O60885).
T2 construct: recombinant BRD4 BD1 and BRD4 BD2 proteins
Nature of the test: Competitive fluorescence-polarization (FP) binding assay, BRD4 BD2. The settings on record: protein 6 nM, probe 1.5 nM.

Protocol for recombinant BRD4 BD1: Fluorescence Polarization (FP) competitive binding studies were carried out using a FAM labeled fluorescent probe, see Cpd. […] Equilibrium dissociation constants (Kd) values of the fluorescent probe to BRD4 BD1 and BD2 proteins were determined from protein saturation experiments by monitoring the total fluorescence polarization of mixtures composed with the fluorescent probe at a fixed concentration and proteins with increasing concentrations up to full saturation. […] Plates were incubated at room temperature for 30 minutes with gentle shaking to assure equilibrium.
The IC50 and Ki values of compounds were determined in a competitive binding experiment. […] Mixtures of 10 μl of the tested compounds in assay buffer with 40% Ethylene Glycol and 190 μl of preincubated protein/probe complex solution in the assay buffer (100 mM potassium phosphate, pH 6.5, 0.01% Triton X-100) were added into assay plates which were incubated at room temperature for 30 minutes with gentle shaking. Final concentrations of proteins were 10 and 6 nM in assays for BRD4 BD1 and BD2, respectively. […] FP values were measured as described above. IC50 values were determined by nonlinear regression fitting of the competition curves.
Protocol for recombinant BRD4 BD2: Fluorescence Polarization (FP) competitive binding studies were carried out using a FAM labeled fluorescent probe, see Cpd. […] Equilibrium dissociation constants (Kd) values of the fluorescent probe to BRD4 BD1 and BD2 proteins were determined from protein saturation experiments by monitoring the total fluorescence polarization of mixtures composed with the fluorescent probe at a fixed concentration and proteins with increasing concentrations up to full saturation. Serial dilutions of testing proteins were mixed with the fluorescent probe to a final volume of 200 μl in the assay buffer (100 mM phosphate buffer, pH=6.5, 0.01% Triton X-100 (Sigma, 282103) being added right before assays). Final fluorescent probe concentration was 1.5 nM for both proteins. Plates were incubated at room temperature for 30 minutes with gentle shaking to assure equilibrium. FP values in millipolarization units (mP) were measured using the Infinite M-1000 plate reader (Tecan U.S., Research Triangle Park, N.C.) in Microfluor 1 96-well, black, round-bottom plates (Thermo Scientific, Waltham, Mass.) at an excitation wavelength of 485 nm and an emission wavelength of 530 nm.
The IC50 and Ki values of compounds were determined in a competitive binding experiment. […] Mixtures of 10 μl of the tested compounds in assay buffer with 40% Ethylene Glycol and 190 μl of preincubated protein/probe complex solution in the assay buffer (100 mM potassium phosphate, pH 6.5, 0.01% Triton X-100) were added into assay plates which were incubated at room temperature for 30 minutes with gentle shaking. Final concentrations of proteins were 10 and 6 nM in assays for BRD4 BD1 and BD2, respectively. Final probe concentration is 1.5 nM in both assays. […] FP values were measured as described above. IC50 values were determined by nonlinear regression fitting of the competition curves.

As usually defined, the IC50 is the point on the concentration scale where inhibition reaches its midpoint. Take `CCNC(=O)N1Cc2c(sc(C)c2Cc2ccccc2)-n2c(C)nnc2[C@@H]1C` [Cpd. No. 22, (S)-3-benzyl-N-ethyl-2,6,9-trimethyl-4H-thieno[3,2-f][1,2,4]triazolo[4,3-a][1,4]diazepine-5(6H)-carboxamide]: the IC50 was found to be 6060 nM at recombinant BRD4 BD1 and 5920 nM at recombinant BRD4 BD2.
`COC(=O)C[C@@H]1NCc2c(sc(C)c2Cc2ccccc2)-n2c(C)nnc21` [Cpd. No. 23, methyl(S)-2-(3-benzyl-2,9-dimethyl-5,6-dihydro-4H-thieno[3,2-f][1,2,4]triazolo[4,3-a][1,4]diazepin-6-yl)acetate]: the values for the IC50 on recombinant BRD4 BD1 and at recombinant BRD4 BD2 were 2500 nM and 9010 nM, respectively.
For `CCOC(=O)CN1Cc2c(sc(C)c2Cc2ccccc2)-n2c(C)nnc2[C@@H]1C` [Cpd. No. 25, ethyl (S)-2-(3-benzyl-2,6,9-trimethyl-4H-thieno[3,2-f][1,2,4]triazolo[4,3-a][1,4]diazepin-5(6H)-yl)acetate], in that order: 942 nM and 1100 nM.
As to `Cc1sc2c(c1Cc1ccccc1)CN(S(=O)(=O)CCc1ccccc1)[C@@H](C)c1nnc(C)n1-2` [Cpd. No. 26, (S)-3-benzyl-2,6,9-trimethyl-5-(phenethylsulfonyl)-5,6-dihydro-4H-thieno[3,2-f][1,2,4]triazolo[4,3-a][1,4]diazepine], the values for the IC50 on recombinant BRD4 BD1 and at recombinant BRD4 BD2 were 9600 nM and 4460 nM, respectively.
The matching figures for `Cc1sc2c(c1Cc1ccccc1)CN(C1CCC1)[C@@H](C)c1nnc(C)n1-2` [Cpd. No. 29, (S)-3-benzyl-5-cyclobutyl-2,6,9-trimethyl-5,6-dihydro-4H-thieno[3,2-f][1,2,4]triazolo[4,3-a][1,4]diazepine]: 1470 nM and 5860 nM.
For `Cc1nnc2n1-c1cccc(Br)c1COC2` [Cpd. No. 36, 7-bromo-1-methyl-4,6-dihydrobenzo[e][1,2,4]triazolo[3,4-c][1,4]oxazepine], the IC50 at recombinant BRD4 BD1 and on recombinant BRD4 BD2 was more than 10000 nM each time.
Turning to `Cc1nnc2n1-c1cccc(Nc3ccccc3)c1COC2` [Cpd. No. 37, 1-methyl-N-phenyl-4,6-dihydrobenzo[e][1,2,4]triazolo[3,4-c][1,4]oxazepin-7-amine], the 50% inhibitory concentration (IC50) on recombinant BRD4 BD1 was 14500 nM; at recombinant BRD4 BD2, 1460 nM.
Consider `Cc1nnc2n1-c1cccc(Cc3ccccc3)c1COC2` [Cpd. No. 38, 7-benzyl-1-methyl-4,6-dihydrobenzo[e][1,2,4]triazolo[3,4-c][1,4]oxazepine], for which the IC50 on recombinant BRD4 BD1 is 1420 nM and 1260 nM; at recombinant BRD4 BD2, 367 nM.
As to `Cc1nnc2n1-c1cccc(Sc3ccccc3)c1COC2` [Cpd. No. 39, 1-methyl-7-(phenylthio)-4,6-dihydrobenzo[e][1,2,4]triazolo[3,4-c][1,4]oxazepine], the IC50 at recombinant BRD4 BD1 is 5450 nM; at recombinant BRD4 BD2, 1060 nM.
Consider `Cc1nnc2n1-c1cccc([S+]([O-])c3ccccc3)c1COC2` (centres unmarked) [Cpd. No. 41, 1-methyl-7-(phenylsulfinyl)-4,6-dihydrobenzo[e][1,2,4]triazolo[3,4-c][1,4]oxazepine], for which the IC50 at recombinant BRD4 BD1 turned out to be 18000 nM; on recombinant BRD4 BD2, 16600 nM.
As for `Cc1nnc2n1-c1cccc(S(=O)(=O)c3ccccc3)c1COC2` [Cpd. No. 42, 1-methyl-7-(phenylsulfonyl)-4,6-dihydrobenzo[e][1,2,4]triazolo[3,4-c][1,4]oxazepine], the IC50 at recombinant BRD4 BD1 was determined as 10300 nM; on recombinant BRD4 BD2, 5020 nM.
The matching figures for `C=C(c1ccccc1)c1cccc2c1COCc1nnc(C)n1-2` [Cpd. No. 43, 1-methyl-7-(1-phenylvinyl)-4,6-dihydrobenzo[e][1,2,4]triazolo[3,4-c][1,4]oxazepine]: 3530 nM and 328 nM.
In the case of `Cc1nnc2n1-c1cccc(C3=CCc4ccccc43)c1COC2` [Cpd. No. 44, 7-(1H-inden-3-yl)-1-methyl-4,6-dihydrobenzo[e][1,2,4]triazolo[3,4-c][1,4]oxazepine], the IC50 at recombinant BRD4 BD1 amounted to 4400 nM; on recombinant BRD4 BD2, 238 nM.
